According to ChEMBL document CHEMBL5365419, “Identification of a Protein Arginine Methyltransferase 7 (PRMT7)/Protein Arginine Methyltransferase 9 (PRMT9) Inhibitor” (J Med Chem, 2023):
The source made the active and inactive calls. The calls are words filed in the database; no cut-off is given here.

Key:
[1] = molecular target: Histone-lysine N-methyltransferase ASH1L (Homo sapiens) (UniProt Q9NR48); assay: Inhibition of N-terminal His-tagged human recombinant ASH1L (2046 to 2330 residues) at higher concentration using oligo nucleosomes as substrate and 3H-SAM as cosubstrate incubated for 60 mins by scintillation counter analysis
Homo sapiens = species: Homo sapiens; assay: Inhibition of N-terminal/C-terminal His-tagged human recombinant MLL1 (3745 to 3969 residues)/WDR5 (22 to 334 residues)/RbBP5 (1 to 538 residues)/ASH2L (2 to 534 residues)/DPY-30 (1 to 99 residues) complex at higher concentration using oligo nucleosomes as substrate and 3H-SAM as cosubstrate incubated for 60 mins by scintillation counter analysis
[2] = molecular target: T1, Histone-lysine N-methyltransferase SETD7 (Homo sapiens) (UniProt Q8WTS6); assay: Inhibition of N-terminal/C-terminal His/GST-tagged human recombinant SET7/9 (2 to 366 residues) at higher concentration using core histone as substrate and 3H-SAM as cosubstrate incubated for 60 mins by scintillation counter analysis
T1 sequence (whole entry): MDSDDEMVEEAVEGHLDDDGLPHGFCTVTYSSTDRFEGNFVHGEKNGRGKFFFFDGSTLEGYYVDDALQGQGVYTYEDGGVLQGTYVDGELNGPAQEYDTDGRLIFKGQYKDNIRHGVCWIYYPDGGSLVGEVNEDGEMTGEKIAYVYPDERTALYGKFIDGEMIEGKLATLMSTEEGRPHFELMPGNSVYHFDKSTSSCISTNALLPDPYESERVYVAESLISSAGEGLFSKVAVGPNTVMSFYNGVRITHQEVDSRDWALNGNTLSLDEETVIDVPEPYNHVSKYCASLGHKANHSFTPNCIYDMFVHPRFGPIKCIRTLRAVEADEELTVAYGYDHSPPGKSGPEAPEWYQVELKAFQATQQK

[3] = molecular target: T2, Histone-lysine N-methyltransferase SMYD3 (Homo sapiens) (UniProt Q9H7B4); assay: Inhibition of C-terminal His/GST-tagged human recombinant SMYD3 (2 to 428 residues) at higher concentration using 3H-SAM as substrate incubated for 60 mins by scintillation counter analysis
T2 sequence (whole entry): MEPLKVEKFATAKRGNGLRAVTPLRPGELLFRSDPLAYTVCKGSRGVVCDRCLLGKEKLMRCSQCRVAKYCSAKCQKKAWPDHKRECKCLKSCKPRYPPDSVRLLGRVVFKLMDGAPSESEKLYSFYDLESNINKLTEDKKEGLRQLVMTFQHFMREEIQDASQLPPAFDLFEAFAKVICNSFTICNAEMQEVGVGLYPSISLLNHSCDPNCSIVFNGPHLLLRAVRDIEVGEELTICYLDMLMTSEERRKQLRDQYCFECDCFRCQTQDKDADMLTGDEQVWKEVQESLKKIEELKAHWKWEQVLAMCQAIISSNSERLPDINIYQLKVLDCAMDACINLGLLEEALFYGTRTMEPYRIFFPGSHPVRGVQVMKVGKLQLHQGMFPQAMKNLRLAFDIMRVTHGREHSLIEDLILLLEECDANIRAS

[4] = molecular target: Histone-lysine N-methyltransferase SUV39H2 (Homo sapiens) (UniProt Q9H5I1); assay: Inhibition of N-terminal/C-terminal His/GST-tagged human recombinant SUV39H2 (46 to 410 residues) at higher concentration using H3 histone as substrate and 3H-SAM as cosubstrate incubated for 60 mins by scintillation counter analysis
[5] = molecular target: Histone-lysine N-methyltransferase, H3 lysine-79 specific (Homo sapiens) (UniProt Q8TEK3); assay: Inhibition of N-terminal/C-terminal His/GST-tagged human recombinant DOT1L (1 to 416 residues) at 10 uM using oligo nucleosome as substrate and 3H-SAM as cosubstrate incubated for 60 mins by scintillation counter analysis
[6] = molecular target: T3, Protein arginine N-methyltransferase 7 (Homo sapiens) (UniProt Q9NVM4); assay: Inhibition of PRMT7 catalysed methylation of HNRNPA1 at R194 residue in HEK293T cells assessed as increase in ratio of abundance of unmethylated over methylated peptides at 10 to 50 uM measured after 24 to 48 hrs by UHPLC- MS/MS analysis; format: cell-based; details: dose 10-50 µM, time 24-48 hrs
T3 sequence (whole entry): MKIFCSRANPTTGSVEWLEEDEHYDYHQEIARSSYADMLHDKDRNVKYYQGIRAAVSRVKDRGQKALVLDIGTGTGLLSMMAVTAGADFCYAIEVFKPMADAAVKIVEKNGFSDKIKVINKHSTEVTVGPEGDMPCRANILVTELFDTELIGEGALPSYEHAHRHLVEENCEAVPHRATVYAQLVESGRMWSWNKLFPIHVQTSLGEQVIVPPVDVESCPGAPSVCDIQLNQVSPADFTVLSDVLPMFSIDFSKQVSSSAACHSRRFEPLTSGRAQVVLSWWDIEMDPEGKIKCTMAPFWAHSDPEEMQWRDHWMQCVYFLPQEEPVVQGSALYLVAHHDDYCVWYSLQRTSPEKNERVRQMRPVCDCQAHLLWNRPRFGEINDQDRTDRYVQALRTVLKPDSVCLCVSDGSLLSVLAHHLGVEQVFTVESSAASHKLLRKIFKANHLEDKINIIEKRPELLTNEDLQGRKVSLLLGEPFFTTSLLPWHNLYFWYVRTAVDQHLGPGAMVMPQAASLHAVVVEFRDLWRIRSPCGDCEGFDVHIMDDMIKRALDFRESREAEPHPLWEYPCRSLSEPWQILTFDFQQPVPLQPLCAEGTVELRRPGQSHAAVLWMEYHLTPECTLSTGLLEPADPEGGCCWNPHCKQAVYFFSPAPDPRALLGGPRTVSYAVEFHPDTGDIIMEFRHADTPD

[7] = molecular target: T3, Protein arginine N-methyltransferase 7 (Homo sapiens); assay: Inhibition of PRMT7 catalysed methylation of HSP70 at R469 residue in HEK293T cells assessed as increase in ratio of abundance of unmethylated over methylated peptides at 10 to 50 uM measured after 24 to 48 hrs by UHPLC- MS/MS analysis; format: cell-based; details: dose 10-50 µM, time 24-48 hrs
[8] = molecular target: T3, Protein arginine N-methyltransferase 7 (Homo sapiens); assay: Inhibition of PRMT7 catalysed methylation of HNRNPA1 at R194 residue in HEK293T cells assessed as increase in ratio of abundance of unmethylated over methylated peptides measured after 24 to 48 hrs by UHPLC- MS/MS analysis; format: cell-based; details: dose 10-50 µM, time 24-48 hrs
[9] = molecular target: T3, Protein arginine N-methyltransferase 7 (Homo sapiens); assay: Inhibition of PRMT7 catalysed methylation of HSP70 at R469 residue in HEK293T cells assessed as increase in ratio of abundance of unmethylated over methylated peptides measured after 24 to 48 hrs by UHPLC- MS/MS analysis; format: cell-based; details: dose 10-50 µM, time 24-48 hrs
[10] = molecular target: T3, Protein arginine N-methyltransferase 7 (Homo sapiens); assay: Inhibition of PRMT7 catalysed methylation of HSP70 at R469 residue in HEK293T cells assessed as increase in ratio of abundance of unmethylated over methylated peptides at 10 to 50 uM by UHPLC- MS/MS analysis; format: cell-based; details: dose 10-50 µM, time 24-48 hrs, TDE = time-dependent effect

Chain of Histone-lysine N-methyltransferase SUV39H2 (Homo sapiens) (Q9H5I1 whole entry, the tested form may be a part): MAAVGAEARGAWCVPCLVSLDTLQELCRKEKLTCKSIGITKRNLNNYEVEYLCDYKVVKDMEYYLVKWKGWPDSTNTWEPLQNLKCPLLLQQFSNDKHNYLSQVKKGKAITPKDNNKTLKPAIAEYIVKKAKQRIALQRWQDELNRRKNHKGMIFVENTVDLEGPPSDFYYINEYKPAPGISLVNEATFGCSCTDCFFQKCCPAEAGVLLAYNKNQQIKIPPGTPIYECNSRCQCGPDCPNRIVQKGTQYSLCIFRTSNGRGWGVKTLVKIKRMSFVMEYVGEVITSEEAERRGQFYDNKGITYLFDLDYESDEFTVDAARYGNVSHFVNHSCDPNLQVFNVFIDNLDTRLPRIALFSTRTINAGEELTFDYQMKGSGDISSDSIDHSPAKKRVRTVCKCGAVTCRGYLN
Chain of Histone-lysine N-methyltransferase, H3 lysine-79 specific (Homo sapiens) (Q8TEK3 whole entry, looked up, the tested form may be a part): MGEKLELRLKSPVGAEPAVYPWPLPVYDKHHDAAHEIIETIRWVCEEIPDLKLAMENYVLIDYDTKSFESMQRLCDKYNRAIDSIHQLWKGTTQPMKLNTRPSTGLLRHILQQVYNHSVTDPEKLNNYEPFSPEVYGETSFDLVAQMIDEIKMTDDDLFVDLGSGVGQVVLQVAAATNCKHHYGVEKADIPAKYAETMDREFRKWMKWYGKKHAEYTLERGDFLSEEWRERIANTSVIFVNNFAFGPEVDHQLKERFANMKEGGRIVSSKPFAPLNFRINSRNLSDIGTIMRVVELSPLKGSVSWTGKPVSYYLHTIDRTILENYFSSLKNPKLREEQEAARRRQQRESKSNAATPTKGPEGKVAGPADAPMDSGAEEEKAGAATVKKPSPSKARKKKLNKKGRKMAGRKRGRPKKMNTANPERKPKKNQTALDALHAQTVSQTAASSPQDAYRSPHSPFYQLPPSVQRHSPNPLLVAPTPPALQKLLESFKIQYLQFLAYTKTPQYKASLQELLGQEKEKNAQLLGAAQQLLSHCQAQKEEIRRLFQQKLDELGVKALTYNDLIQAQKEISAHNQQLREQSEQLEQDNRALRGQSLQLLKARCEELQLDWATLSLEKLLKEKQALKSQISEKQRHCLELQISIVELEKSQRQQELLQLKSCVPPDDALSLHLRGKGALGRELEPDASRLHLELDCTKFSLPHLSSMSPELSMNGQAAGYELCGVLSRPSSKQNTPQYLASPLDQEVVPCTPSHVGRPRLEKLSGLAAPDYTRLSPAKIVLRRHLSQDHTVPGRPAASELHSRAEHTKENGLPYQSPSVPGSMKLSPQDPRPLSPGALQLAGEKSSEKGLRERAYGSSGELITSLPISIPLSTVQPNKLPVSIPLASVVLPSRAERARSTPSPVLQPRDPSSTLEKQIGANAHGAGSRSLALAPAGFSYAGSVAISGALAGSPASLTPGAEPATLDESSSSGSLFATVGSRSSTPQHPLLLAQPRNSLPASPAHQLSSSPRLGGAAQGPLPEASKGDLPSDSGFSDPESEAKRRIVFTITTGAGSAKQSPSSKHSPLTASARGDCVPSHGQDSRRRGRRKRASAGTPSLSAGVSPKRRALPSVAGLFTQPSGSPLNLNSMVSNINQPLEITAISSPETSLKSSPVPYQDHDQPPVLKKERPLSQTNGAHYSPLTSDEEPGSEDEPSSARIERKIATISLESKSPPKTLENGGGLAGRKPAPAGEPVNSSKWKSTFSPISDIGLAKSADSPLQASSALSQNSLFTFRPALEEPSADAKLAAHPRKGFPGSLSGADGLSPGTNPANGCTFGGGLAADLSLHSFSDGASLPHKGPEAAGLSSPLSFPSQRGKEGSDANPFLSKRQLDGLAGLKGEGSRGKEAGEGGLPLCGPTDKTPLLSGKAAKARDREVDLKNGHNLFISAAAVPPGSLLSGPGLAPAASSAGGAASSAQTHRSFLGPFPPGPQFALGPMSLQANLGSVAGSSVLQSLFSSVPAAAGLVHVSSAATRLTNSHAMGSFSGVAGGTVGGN

inhibition [1]: inactive
inhibition (Homo sapiens): inactive
inhibition [2]: inactive
inhibition [3]: inactive
inhibition [4]: inactive
inhibition [5]: Active
inhibition [6]: Active
inhibition [7]: Active
inhibition [8]: Dose-Dependent Effect
inhibition [9]: Dose-Dependent Effect
inhibition [10]: Tde
SMILES: COC(=O)c1cc(O)c2cc(NC(=O)NCCCNC(=N)NC[C@H]3O[C@@H](n4cnc5c(N)ncnc54)[C@H](O)[C@@H]3O)cc(C(F)(F)F)c2c1
